Measurements as given in US20090182019A1, “Histone deacetylase inhibitors” (The Johns Hopkins University, priority 2005, published 2009).
Counter-ions that a name gives are not always drawn.

How the values were obtained:
[1] = tested on: HDAC; experiment: Inhibition of isolated HDAC, commercial Fluor de Lys assay (HeLa cell nuclear extract); format: biochemical; conditions: 1 μM inhibitor; average of three determinations
Experimental: This is a facile and rapid 96-well plate-based assay that is suitable for use as a high throughput screen. The reaction mixture contains a HeLa cell nuclear extract and a commercial substrate containing acetylated lysine side chains. The substrate and extract are incubated in the presence of the appropriate concentration of the inhibitor. Deacetylation of the substrate followed by mixing with the provided developer generates a fluorophore. Comparison of inhibited vs. control relative fluorescence using a standard plate reader is employed to determine percent HDAC activity remaining. All determinations can be carried out in triplicate, and reported values can be the average of these determinations.
Compounds were evaluated for their ability to inhibit isolated HDAC at 1 μM in the Fluor de Lys™ assay system.

[2] = tested on: HDAC; experiment: as above; format: biochemical; parameters: dose or concentration left out as unconfirmed; conditions: TSA as positive control
[3] = tested on: ML-1 human myelocytic leukemia line; experiment: Cell viability in ML-1 cells, MTT assay; format: cell-based; conditions: ML1, 3 days and 7 days of exposure, 0.1 to 100 μM, read-out: IC50, toxicity to ML-1 cells (MTT)
Description: The well characterized ML-1 human myelocytic leukemia cell line was used to obtain the results presented below in the Examples section. This line has a well characterized response to HDAC inhibitors and is amenable for use in rapid in vitro screening of compounds to evaluate growth inhibitory effects. In addition to the ML-1 cells, the well characterized HCT 116 human colon adenocarcinoma may be used. […]
The MTT (3-[4,5-dimethylthiazol-2-yl]2,5-diphenyl tetrazolium bromide) reduction assay for growth inhibition studies may also be employed. […] HCT 116 cells are seeded at a density of 5×10^4 cells/ml and ML-1 cells are seeded at 2×10^4/ml and are treated for a period of 96 hr prior to dye reduction and plate reading. […]
Compound 19 was evaluated in a series of cell viability studies in the ML-1 human myelocytic leukemia line. […] Compound 19, as well as the positive controls TSA and MS-275, were compared at concentrations between 0.1 and 100 μM, and cell viability was determined in the ML-1 cultured cell preparation at 3 days (FIG. 4) and 7 days (FIG. 5) using a standard MTT assay. […] In a separate set experiments, cell viability was determined under the same conditions by direct cell count. […]

[4] = tested on: ML-1 human myelocytic leukemia line; experiment: Cell viability in ML-1 cells, direct cell count; format: cell-based; conditions: ML1, 3 and 7 days of exposure, read-out: IC50, toxicity to ML-1 cells (direct cell count)
Experimental: ML-1 cells were maintained in RPMI medium supplemented with 10% fetal calf serum, 0.1 mg/mL gentamicin, and 2 mM L-glutamine. 3×10^5 cells/ml were treated with 1 (Wako Pure Chemicals, Richmond, Va.), 2 (Mitsui Pharmaceuticals, Chiba, Japan) and the desired test compound for the concentration and time indicated in the figure legend.
Compound 19 was evaluated in a series of cell viability studies in the ML-1 human myelocytic leukemia line. The results of these studies are outlined in FIGS. 4-7. Compound 19, as well as the positive controls TSA and MS-275, were compared at concentrations between 0.1 and 100 μM, and cell viability was determined in the ML-1 cultured cell preparation at 3 days (FIG. 4) and 7 days (FIG. 5) using a standard MTT assay. […] In a separate set experiments, cell viability was determined under the same conditions by direct cell count. As before, TSA and MS-275 produced significant toxicity at both 3 and 7 days, again with IC50 values less than 10 μM.

SMILES | Inhibition of HDAC at 1 μM (%) [1] | further results
CN(C)c1ccc(CN(CCCNCCCCN)C(=O)CCCCC(=O)NO)cc1 [Compound 14] | 59.99% | Dose-response for inhibition of HDAC (relative potency) [2]: essentially equipotent
CN(C)c1ccc(CN(CCCNCCCCN)C(=O)CCCCCCC(=O)NO)cc1 [Compound 72] | 58% | 
O=C(CCCCC(=O)NCCCCNCc1ccccc1-c1ccccc1)NO [Compound 5, 5-{4-[2-(Phenyl)benzyl]aminobutyl}carbamoylpentanohydroxamic Acid] | 16.34% | 
CN(C)c1ccc(CNCCCCNC(=O)CCCCC(=O)NO)cc1 [Compound 16, 5-{4-[4-N,N-(Dimethyl)aminobenzyl]amino}butylcarbamoylpentanohydroxamic Acid] | 10.32% | 
O=C(CCCCCCCC(=O)NCCCNCCCCNCCC(c1ccccc1)c1ccccc1)NO [Compound 71] | 54% | 
CC(/C=C/C(=O)NO)=C\[C@@H](C)C(=O)c1ccc(N(C)C)cc1 [Compound 1, trichostatin] | 100% | IC50 [3]: < 10 µM; IC50 [4]: < 10 µM
CC(C)(C)c1ccc(CNCCCCNCCCNC(=O)CCCCC(=O)O)cc1 [Compound 13] | 1.48% | 
CN(C)c1ccc(CCNCCCCNCCCNC(=O)CCCCCCC(=O)NO)cc1 [Compound 68] | 46% | 
Cc1ccc(CNCCCCNC(=O)CCCCCCC(=O)NO)cc1 [Compound 17, 7-{4-[4-(Methyl)benzyl]aminobutyl}carbamoylheptanohydroxamic Acid] | 53.2% | 
O=C(CCCCC(=O)NCCCNCCCCNCCC(c1ccccc1)c1ccccc1)NO [Compound 20, 15-N-[4-(3,3-diphenyl)propyl]amino-6-oxo-7,11-diazapentadecanohydroxamic Acid dihydrobromide] | 19.75% | 
CN(C)c1ccc(CN(CCCCN)C(=O)CCCCCCC(=O)NO)cc1 [Compound 18, 7-{[4-(Amino)butyl]-N-[4-(dimethylaminobenzyl)-carbamoyl]}heptanohydroxamic Acid] | 15.6% | 
O=C(CCCCCC(=O)NCCCNCCCCNCCC(c1ccccc1)c1ccccc1)NO [Compound 70] | 46% | 
O=C(CCCCCCCCC(=O)NCCCNCCCCNCCC(c1ccccc1)c1ccccc1)NO [Compound 69] | 73% | 
O=C(CCCCC(=O)NCCCNCCCNCCCNCCCNCC1CCCCCC1)NO [Compound 9, 22-(N-[2-(Cycloheptyl)methyl]amino)-6-oxo-7,11,15,19-tetraazadocosanohydroxamic Acid] | 41.03% | 
CN(C)c1ccc(CNCCCCNC(=O)CCCCCCC(=O)NO)cc1 [Compound 12, 7-{4-[4-N,N-(Dimethylamino)benzyl]aminobutyl}-carbamoylheptanohydroxamic Acid] | 33.89% | 
Cc1ccc(CNCCCCNC(=O)CCCCC(=O)NO)cc1 [Compound 7, 5-{4-[4-(Methyl)benzyl]aminobutyl}carbamoylpentanohydroxamic Acid] | 44.17% | 
CC(C)(C)c1ccc(CNCCCCNCCCNC(=O)CCCCC(=O)NO)cc1 [Compound 11, 15-N-[(4-tert-Butyl)benzyl]amino-6-oxo-7,11-diazapentadecanohydroxamic Acid dihydrobromide] | 74.86% | Dose-response for inhibition of HDAC (relative potency) [2]: essentially equipotent
O=C(CCCCCCC(=O)NCCCNCCCNCCCNCCC(c1ccccc1)c1ccccc1)NO [Compound 67] | 55% | 
O=C(CCCCC(=O)NCCCCN(Cc1ccccc1-c1ccccc1)Cc1ccccc1-c1ccccc1)NO [Compound 10] | 3.74% | 
CC(C)(C)c1ccc(CNCCCCNCCCNC(=O)CCCCCCC(=O)NO)cc1 [Compound 15, dihydrobromide] | 49.36% | 
Nc1ccccc1NC(=O)c1ccc(CNC(=O)OCc2cccnc2)cc1 [Compound 2, MS-275] | 100% | IC50 [3]: < 10 µM; IC50 [4]: < 10 µM
